Data taken from publication PMC9663597, “Anti-infective therapy using species-specific activators of Staphylococcus aureus ClpP” (Nature Communications, 2022).
≈ marks a conversion by molar mass, not a printed value. Like-named read-outs stand apart in the source and are kept apart here.

Assays:
[1] = target: T1, SaClpPI91W (Staphylococcus aureus, UniProt Q2G036, I91W); experiment: ITC; also DSF, CETSA, alpha-casein hydrolysis; assay type: binding
T1 construct: gene clpP

[2] = system: T2, Staphylococcus aureus USA300 LAC; experiment: microbe, parasite or virus in culture; design: species or system Staphylococcus aureus strains; Minimum inhibitory concentration, growth inhibition of S. aureus strains in culture; conditions: USA300, read-out: MIC
T2 construct: USA300 LAC
Source text: (§1) Given our species-specific activators suppress the growth of S. aureus 8325-4, we then tested the antistaphylococcal spectrum of (R)- and (S)-ZG197 against a panel of S. aureus strains, including the Newman strain and multidrug-resistant MRSA strains. The USA300, NRS-1, NRS-70, NRS-100, NRS-108, and NRS-271 MRSA strains were collected from the Network on Antimicrobial Resistance in S. aureus (Supplementary Table 2). […] We also tested the antibacterial effects of our activators on five hospital-acquired, multidrug-resistant MRSA isolates in China, including XJ009, XJ036, XJ049, XJ051, and XJ052 (Supplementary Table 2). […] We next performed a minimum inhibitory concentration (MIC) assay in [compound left out] culture to determine the antibacterial effects of our activators on the S. aureus 8325-4 strain. […] To dissect whether our activators’ antistaphylococcal activity depends on ClpP in S. aureus, we determined the inhibitory effects of our activators on the ΔclpP mutant and the complemented clpP or clpPI91W mutant strains, respectively (Fig. 5a). The selective (R)- and (S)-ZG197 activators or the global activators ICG-001 and ONC212 minimally suppress the growth of ΔclpP mutant strain, and all the MICs are observed to be over 256 μg/mL. The antibacterial phenotype can be rescued in the complemented clpP strain in the presence of ClpP activators.

[3] = system: T3, Staphylococcus aureus NRS100; experiment: microbe, parasite or virus in culture; design: species or system Staphylococcus aureus strains; Minimum inhibitory concentration, growth inhibition of S. aureus strains in culture; conditions: NRS100, read-out: MIC
T3 construct: NRS100
Source text: as §1

[4] = system: T4, Staphylococcus aureus XJ049; experiment: microbe, parasite or virus in culture; design: species or system Staphylococcus aureus strains; Minimum inhibitory concentration, growth inhibition of S. aureus strains in culture; conditions: XJ049, read-out: MIC
T4 construct: XJ049
Source text: as §1

[5] = system: T5, Staphylococcus aureus XJ036; experiment: microbe, parasite or virus in culture; design: species or system Staphylococcus aureus strains; Minimum inhibitory concentration, growth inhibition of S. aureus strains in culture; conditions: XJ036, read-out: MIC
T5 construct: XJ036
Source text: as §1

[6] = system: T6, Staphylococcus aureus XJ052; experiment: microbe, parasite or virus in culture; design: species or system Staphylococcus aureus strains; Minimum inhibitory concentration, growth inhibition of S. aureus strains in culture; conditions: XJ052, read-out: MIC
T6 construct: XJ052
Source text: as §1

[7] = system: T7, Staphylococcus aureus XJ051; experiment: microbe, parasite or virus in culture; design: species or system Staphylococcus aureus strains; Minimum inhibitory concentration, growth inhibition of S. aureus strains in culture; conditions: XJ051, read-out: MIC
T7 construct: XJ051
Source text: as §1

[8] = system: T8, Staphylococcus aureus NRS1; experiment: microbe, parasite or virus in culture; design: species or system Staphylococcus aureus strains; Minimum inhibitory concentration, growth inhibition of S. aureus strains in culture; conditions: NRS1, read-out: MIC
T8 construct: NRS1
Source text: as §1

[9] = system: T9, Staphylococcus aureus NRS108; experiment: microbe, parasite or virus in culture; design: species or system Staphylococcus aureus strains; Minimum inhibitory concentration, growth inhibition of S. aureus strains in culture; conditions: NRS108, read-out: MIC
T9 construct: NRS108
Source text: as §1

[10] = system: T10, Staphylococcus aureus XJ009; experiment: microbe, parasite or virus in culture; design: species or system Staphylococcus aureus strains; Minimum inhibitory concentration, growth inhibition of S. aureus strains in culture; conditions: XJ009, read-out: MIC
T10 construct: XJ009
Source text: as §1

[11] = system: T11, Staphylococcus aureus NRS271; experiment: microbe, parasite or virus in culture; design: species or system Staphylococcus aureus strains; Minimum inhibitory concentration, growth inhibition of S. aureus strains in culture; conditions: NRS271, read-out: MIC
T11 construct: NRS271
Source text: as §1

[12] = system: T12, Staphylococcus aureus NRS70; experiment: microbe, parasite or virus in culture; design: species or system Staphylococcus aureus strains; Minimum inhibitory concentration, growth inhibition of S. aureus strains in culture; conditions: NRS70, read-out: MIC
T12 construct: NRS70
Source text: as §1

[13] = system: T13, Staphylococcus aureus Newman; experiment: microbe, parasite or virus in culture; design: species or system Staphylococcus aureus strains; Minimum inhibitory concentration, growth inhibition of S. aureus strains in culture; conditions: NEWMAN, read-out: MIC
T13 construct: Newman
Source text: as §1

[14] = target: T14, SaClpP (Staphylococcus aureus ClpP) (Staphylococcus aureus, UniProt Q2G036); experiment: ITC; also BLI (Kd […]), DSF, CETSA, X-ray crystal structure, alpha-casein hydrolysis EC50 […]; assay type: binding
[15] = target: T14, SaClpP (Staphylococcus aureus ClpP); experiment: ITC; also BLI (Kd […]), DSF, CETSA, X-ray crystal structure; assay type: binding
[16] = system: T4, Staphylococcus aureus XJ049; experiment: microbe, parasite or virus in culture; design: species or system Staphylococcus aureus strains; Minimum inhibitory concentration, growth inhibition of S. aureus strains in culture; conditions: XJ049
Source text: as §1, with “liquid” for “[compound left out]”

[17] = system: T5, Staphylococcus aureus XJ036; experiment: microbe, parasite or virus in culture; design: species or system Staphylococcus aureus strains; Minimum inhibitory concentration, growth inhibition of S. aureus strains in culture; conditions: XJ036
Source text: as §1, with “liquid” for “[compound left out]”

[18] = system: T6, Staphylococcus aureus XJ052; experiment: microbe, parasite or virus in culture; design: species or system Staphylococcus aureus strains; Minimum inhibitory concentration, growth inhibition of S. aureus strains in culture; conditions: XJ052
Source text: as §1, with “liquid” for “[compound left out]”

[19] = system: T7, Staphylococcus aureus XJ051; experiment: microbe, parasite or virus in culture; design: species or system Staphylococcus aureus strains; Minimum inhibitory concentration, growth inhibition of S. aureus strains in culture; conditions: XJ051
Source text: as §1, with “liquid” for “[compound left out]”

[20] = target: T15, Staphylococcus aureus ClpP (Staphylococcus aureus), Q2G036; experiment: crystal structure; SaClpP (10 mg/mL) with 5-fold ZG180, sitting drop vapor diffusion at 16 °C, 30% 2-methyl-2,4-pentanediol, 0.1 M sodium acetate/HCl pH 8.0, 20 mM calcium chloride; 1.90 Å; conditions: remark: other sources report otherwise
T15 chain: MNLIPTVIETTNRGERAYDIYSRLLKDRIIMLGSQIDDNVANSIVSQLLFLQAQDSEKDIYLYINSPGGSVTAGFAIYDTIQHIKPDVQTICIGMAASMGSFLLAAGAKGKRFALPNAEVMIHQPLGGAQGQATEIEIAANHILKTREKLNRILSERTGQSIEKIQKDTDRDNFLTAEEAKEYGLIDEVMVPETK

## CC[C@H](C)[C@H]1C(=O)N([C@H](C)c2cccc3ccccc23)C[C@@H]2N(C(=O)NCCCC(F)(F)F)CCC(=O)N12 [(R)-ZG197]
[1]
  Kd: 930 ± 200 nM
[2]
  MIC: 0.5 µg/mL (≈ 0.939 µM)
[3]
  MIC: 0.5 µg/mL (≈ 0.939 µM)
[4]
  MIC: 0.5 µg/mL (≈ 0.939 µM)
[5]
  MIC: 1 µg/mL (≈ 1.88 µM)
[6]
  MIC: 1 µg/mL (≈ 1.88 µM)
[7]
  MIC: 0.5 µg/mL (≈ 0.939 µM)
[8]
  MIC: 2 µg/mL (≈ 3.76 µM)
[9]
  MIC: 0.5 µg/mL (≈ 0.939 µM)
[10]
  MIC: 1 µg/mL (≈ 1.88 µM)
[11]
  MIC: 2 µg/mL (≈ 3.76 µM)
[12]
  MIC: 0.5 µg/mL (≈ 0.939 µM)
[13]
  MIC: 0.5 µg/mL (≈ 0.939 µM)
[14]
  Kd: 2500 ± 200 nM

## CC[C@@H](C)[C@H]1C(=O)N([C@@H](C)c2cccc3ccccc23)C[C@@H]2N(C(=O)NCCCC(F)(F)F)CCC(=O)N12 [(S)-ZG197]
[2]
  MIC: 8 µg/mL (≈ 15 µM)
[3]
  MIC: 2 µg/mL (≈ 3.76 µM)
[4]
  MIC: 8 µg/mL (≈ 15 µM)
[5]
  MIC: 4 µg/mL (≈ 7.51 µM)
[6]
  MIC: 4 µg/mL (≈ 7.51 µM)
[7]
  MIC: 4 µg/mL (≈ 7.51 µM)
[8]
  MIC: 8 µg/mL (≈ 15 µM)
[9]
  MIC: 4 µg/mL (≈ 7.51 µM)
[10]
  MIC: 8 µg/mL (≈ 15 µM)
[11]
  MIC: 4 µg/mL (≈ 7.51 µM)
[12]
  MIC: 4 µg/mL (≈ 7.51 µM)
[13]
  MIC: 2 µg/mL (≈ 3.76 µM)
[15]
  Kd: 5000 ± 300 nM

## CCC[C@@H]1C[C@@H](C(=O)N[C@@H]([C@H]2O[C@H](SC)[C@H](O)[C@@H](O)[C@H]2O)[C@H](C)Cl)N(C)C1 [Clindamycin]
[5]
  MIC: 0.13 µg/mL (≈ 0.306 µM)
[7]
  MIC: 0.06 µg/mL (≈ 0.141 µM)

## CC[C@H]1OC(=O)[C@H](C)[C@@H](O[C@H]2C[C@@](C)(OC)[C@@H](O)[C@H](C)O2)[C@H](C)[C@@H](O[C@@H]2O[C@H](C)C[C@H](N(C)C)[C@H]2O)[C@](C)(O)C[C@@H](C)C(=O)[C@H](C)[C@@H](O)[C@]1(C)O [Erythromycin]
[2]
  MIC: 16 µg/mL (≈ 21.8 µM)
[3]
  MIC: 0.06 µg/mL (≈ 0.0818 µM)
[5]
  MIC: 0.25 µg/mL (≈ 0.341 µM)
[7]
  MIC: 32 µg/mL (≈ 43.6 µM)
[11]
  MIC: 0.5 µg/mL (≈ 0.681 µM)

## CNC(C)[C@@H]1CC[C@@H](N)[C@@H](O[C@H]2[C@H](O)[C@@H](O[C@H]3OC[C@](C)(O)[C@H](NC)[C@H]3O)[C@H](N)C[C@@H]2N)O1 (stereo partly drawn) [Gentamicin]
[16]
  MIC: 32 µg/mL (≈ 67 µM)
[17]
  MIC: 0.25 µg/mL (≈ 0.523 µM)
[18]
  MIC: 64 µg/mL (≈ 134 µM)
[19]
  MIC: 64 µg/mL (≈ 134 µM)

## CCn1cc(C(=O)O)c(=O)c2cc(F)c(N3CCNCC3)cc21 [Norfloxacin]
[5]
  MIC: 64 µg/mL (≈ 200 µM)
[7]
  MIC: 64 µg/mL (≈ 200 µM)
[10]
  MIC: 0.5 µg/mL (≈ 1.57 µM)

## O=C1C2=C(CCN(Cc3ccccc3)C2)N2CCN=C2N1Cc1ccc(C(F)(F)F)cc1 [ONC212]
[2]
  MIC: 0.5 µg/mL (≈ 1.14 µM)
[3]
  MIC: 0.5 µg/mL (≈ 1.14 µM)
[4]
  MIC: 0.25 µg/mL (≈ 0.568 µM)
[5]
  MIC: 0.25 µg/mL (≈ 0.568 µM)
[6]
  MIC: 0.25 µg/mL (≈ 0.568 µM)
[7]
  MIC: 1 µg/mL (≈ 2.27 µM)
[8]
  MIC: 1 µg/mL (≈ 2.27 µM)
[9]
  MIC: 0.5 µg/mL (≈ 1.14 µM)
[10]
  MIC: 0.5 µg/mL (≈ 1.14 µM)
[11]
  MIC: 0.5 µg/mL (≈ 1.14 µM)
[12]
  MIC: 0.25 µg/mL (≈ 0.568 µM)
[13]
  MIC: 0.25 µg/mL (≈ 0.568 µM)

## Cc1onc(-c2ccccc2)c1C(=O)N[C@@H]1C(=O)N2[C@@H]1SC(C)(C)[C@@H]2C(=O)O [Oxacillin]
[3]
  MIC: 0.1 µg/mL (≈ 0.249 µM)
[5]
  MIC: 1 µg/mL (≈ 2.49 µM)
[9]
  MIC: 0.5 µg/mL (≈ 1.25 µM)
[10]
  MIC: 4 µg/mL (≈ 9.96 µM)
[12]
  MIC: 2 µg/mL (≈ 4.98 µM)
[13]
  MIC: 0.1 µg/mL (≈ 0.249 µM)

## CN(C)[C@@H]1C(O)=C(C(N)=O)C(=O)[C@@]2(O)C(O)=C3C(=O)c4c(O)cccc4[C@@](C)(O)[C@H]3C[C@@H]12 [Tetracycline]
[2]
  MIC: 16 µg/mL (≈ 36 µM)
[11]
  MIC: 2.5 µg/mL (≈ 5.63 µM)
[12]
  MIC: 0.06 µg/mL (≈ 0.135 µM)

B1: Staphylococcus aureus ClpP, Q2G036 1-195 (enzyme)
chain: MNLIPTVIETTNRGERAYDIYSRLLKDRIIMLGSQIDDNVANSIVSQLLFLQAQDSEKDIYLYINSPGGSVTAGFAIYDTIQHIKPDVQTICIGMAASMGSFLLAAGAKGKRFALPNAEVMIHQPLGGAQGQATEIEIAANHILKTREKLNRILSERTGQSIEKIQKDTDRDNFLTAEEAKEYGLIDEVMVPETK
[20]
  stoichiometry N: 14
